Laboratory results from ChEMBL document CHEMBL1134976, “SB-656104-A: a novel 5-HT(7) receptor antagonist with improved in vivo properties” (Bioorg Med Chem Lett, 2002).

Legend:
[1] = target: T1, 5-hydroxytryptamine receptor 7 (Homo sapiens, UniProt P34969); test: Binding affinity for human cloned 5-hydroxytryptamine 7 receptor in HEK 293 using [3H]5-CT as a radioligand; assay type: cell-based, HEK293
[2] = target: T2, Alpha-1B adrenergic receptor (Homo sapiens, UniProt P35368); test: Binding affinity towards Alpha-1B adrenergic receptor
T2 sequence (P35368 whole entry): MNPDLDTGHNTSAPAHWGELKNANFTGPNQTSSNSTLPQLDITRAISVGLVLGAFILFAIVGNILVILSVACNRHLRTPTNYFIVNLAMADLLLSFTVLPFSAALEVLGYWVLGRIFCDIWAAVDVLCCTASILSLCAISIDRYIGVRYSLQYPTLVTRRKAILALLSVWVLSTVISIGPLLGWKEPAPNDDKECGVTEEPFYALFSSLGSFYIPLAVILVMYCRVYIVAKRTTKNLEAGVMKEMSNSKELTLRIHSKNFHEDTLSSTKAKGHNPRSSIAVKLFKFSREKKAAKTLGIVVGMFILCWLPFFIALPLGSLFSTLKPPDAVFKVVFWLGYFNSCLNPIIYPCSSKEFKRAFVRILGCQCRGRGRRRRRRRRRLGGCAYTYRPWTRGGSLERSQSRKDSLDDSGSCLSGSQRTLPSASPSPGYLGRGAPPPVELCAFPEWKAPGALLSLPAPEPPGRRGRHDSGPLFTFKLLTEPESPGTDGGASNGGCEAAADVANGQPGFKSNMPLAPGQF

Cavia porcellus [3] = test: Effective dose to antagonise 5-CT induced hypothermia in guinea pig at 1 hour after intraperitoneal administration; conditions: ip
[4] = Compound was tested for the lower blood clearance in rat; assay type: ADME, organism-based; conditions: read-out: CLb
[5] = Steady state brain :blood ratio was determined; assay type: ADME, organism-based; conditions: rat, brain and blood
[6] = Half life was determined; assay type: ADME, organism-based; conditions: rat, in vivo
[7] = target: 5-hydroxytryptamine receptor 4 (Homo sapiens, UniProt Q13639); test: Compound was tested for its binding affinity for 5-hydroxytryptamine 4 receptor
5-hydroxytryptamine receptor 4, sequence (Q13639 whole entry): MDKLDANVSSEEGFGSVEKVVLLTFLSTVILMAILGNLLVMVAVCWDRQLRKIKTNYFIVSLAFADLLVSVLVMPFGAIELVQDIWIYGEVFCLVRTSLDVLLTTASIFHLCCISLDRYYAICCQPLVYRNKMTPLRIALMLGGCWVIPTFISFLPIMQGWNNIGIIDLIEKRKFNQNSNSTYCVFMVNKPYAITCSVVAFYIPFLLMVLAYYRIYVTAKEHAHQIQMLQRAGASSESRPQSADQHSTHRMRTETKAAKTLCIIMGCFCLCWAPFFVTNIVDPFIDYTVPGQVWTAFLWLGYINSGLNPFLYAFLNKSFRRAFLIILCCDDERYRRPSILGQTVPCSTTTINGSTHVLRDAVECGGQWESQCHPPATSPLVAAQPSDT

[8] = Oral bioavailability in rat; assay type: ADME, organism-based; conditions: in vivo
[9] = target: 5-hydroxytryptamine receptor 1D (Homo sapiens, UniProt P28221); test: Compound was tested for its binding affinity for human cloned 5-hydroxytryptamine 1D receptor in CHO using [3H]5-HT as a radioligand
5-hydroxytryptamine receptor 1D, sequence (P28221 whole entry): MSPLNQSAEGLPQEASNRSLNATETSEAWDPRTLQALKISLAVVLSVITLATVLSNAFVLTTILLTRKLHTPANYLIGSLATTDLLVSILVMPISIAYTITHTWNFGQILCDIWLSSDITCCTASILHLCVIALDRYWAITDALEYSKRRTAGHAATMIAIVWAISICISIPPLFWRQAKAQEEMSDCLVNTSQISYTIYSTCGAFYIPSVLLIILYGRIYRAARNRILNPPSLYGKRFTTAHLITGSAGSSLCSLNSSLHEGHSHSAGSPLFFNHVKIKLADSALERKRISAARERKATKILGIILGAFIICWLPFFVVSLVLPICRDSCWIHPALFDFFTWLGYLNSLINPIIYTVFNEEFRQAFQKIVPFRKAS

[10] = target: 5-hydroxytryptamine receptor 6 (Homo sapiens, UniProt P50406); test: Compound was tested for its binding affinity in 5-hydroxytryptamine 6 receptor (using human cloned receptors in HeLa and [3H]LSD as a radioligand )
5-hydroxytryptamine receptor 6, sequence (P50406 whole entry): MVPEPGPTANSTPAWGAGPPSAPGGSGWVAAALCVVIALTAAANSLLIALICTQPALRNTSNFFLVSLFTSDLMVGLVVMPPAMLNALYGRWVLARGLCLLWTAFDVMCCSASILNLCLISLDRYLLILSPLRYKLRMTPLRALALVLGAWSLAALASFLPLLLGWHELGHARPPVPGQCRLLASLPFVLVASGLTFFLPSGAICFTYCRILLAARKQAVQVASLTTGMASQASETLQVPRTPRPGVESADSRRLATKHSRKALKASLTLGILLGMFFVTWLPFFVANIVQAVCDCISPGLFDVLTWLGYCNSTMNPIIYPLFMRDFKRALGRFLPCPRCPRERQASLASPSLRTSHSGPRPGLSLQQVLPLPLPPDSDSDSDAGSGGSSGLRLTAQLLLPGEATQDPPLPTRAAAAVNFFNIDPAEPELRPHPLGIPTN

[11] = target: T3, 5-hydroxytryptamine receptor 1F (Homo sapiens, UniProt P30939); test: Compound was tested for its binding affinity for human cloned 5-hydroxytryptamine 1F receptor in CHO using [3H]5-HT as a radioligand
T3 sequence (P30939 whole entry): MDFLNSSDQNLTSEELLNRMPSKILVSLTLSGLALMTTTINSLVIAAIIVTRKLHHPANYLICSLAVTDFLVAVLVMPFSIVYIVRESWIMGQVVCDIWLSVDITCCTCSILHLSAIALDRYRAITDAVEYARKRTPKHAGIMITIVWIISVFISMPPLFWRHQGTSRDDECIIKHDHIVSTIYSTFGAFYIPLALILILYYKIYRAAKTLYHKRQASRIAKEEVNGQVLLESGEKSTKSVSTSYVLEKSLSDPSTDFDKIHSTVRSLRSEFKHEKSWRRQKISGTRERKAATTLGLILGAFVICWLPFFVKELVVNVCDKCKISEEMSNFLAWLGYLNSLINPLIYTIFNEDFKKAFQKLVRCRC

[12] = target: 5-hydroxytryptamine receptor 2A (Homo sapiens, UniProt P28223); test: Compound was tested for its binding affinity for human cloned 5-hydroxytryptamine 2A receptor in HEK 293 using [3H]ketanserin as a radioligand; assay type: cell-based, HEK293
5-hydroxytryptamine receptor 2A, sequence (P28223 whole entry): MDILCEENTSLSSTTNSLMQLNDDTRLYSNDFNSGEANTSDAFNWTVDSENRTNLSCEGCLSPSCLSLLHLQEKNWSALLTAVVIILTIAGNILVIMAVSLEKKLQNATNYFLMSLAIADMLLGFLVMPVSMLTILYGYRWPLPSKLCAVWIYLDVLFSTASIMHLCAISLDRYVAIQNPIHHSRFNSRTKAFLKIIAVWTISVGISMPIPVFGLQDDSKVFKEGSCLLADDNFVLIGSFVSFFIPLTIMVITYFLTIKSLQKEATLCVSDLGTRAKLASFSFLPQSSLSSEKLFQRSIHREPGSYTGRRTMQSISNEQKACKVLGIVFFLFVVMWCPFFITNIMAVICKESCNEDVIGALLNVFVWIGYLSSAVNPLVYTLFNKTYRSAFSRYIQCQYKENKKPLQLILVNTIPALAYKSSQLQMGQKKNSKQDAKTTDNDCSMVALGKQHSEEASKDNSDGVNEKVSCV

[13] = target: T4, 5-hydroxytryptamine receptor 1A (Homo sapiens, UniProt P08908); test: Compound was tested for its binding affinity for human cloned 5-hydroxytryptamine 1A receptor in HEK 293 using [3H]5-CT as a radioligand; assay type: cell-based, HEK293
T4 sequence (P08908 whole entry): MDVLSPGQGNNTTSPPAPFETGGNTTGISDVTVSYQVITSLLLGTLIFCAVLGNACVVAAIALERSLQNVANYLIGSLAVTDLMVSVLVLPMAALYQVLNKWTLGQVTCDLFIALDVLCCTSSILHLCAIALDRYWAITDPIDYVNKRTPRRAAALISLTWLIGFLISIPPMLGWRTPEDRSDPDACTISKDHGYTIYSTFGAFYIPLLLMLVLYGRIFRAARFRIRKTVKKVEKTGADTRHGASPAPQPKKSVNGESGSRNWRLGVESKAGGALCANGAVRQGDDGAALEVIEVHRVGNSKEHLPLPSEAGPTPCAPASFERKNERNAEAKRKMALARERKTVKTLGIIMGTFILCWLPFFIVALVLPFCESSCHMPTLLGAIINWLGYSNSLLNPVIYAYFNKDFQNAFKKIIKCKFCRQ

[14] = target: 5-hydroxytryptamine receptor 5A (Homo sapiens, UniProt P47898); test: Compound was tested for its binding affinity in 5-hydroxytryptamine 5A receptor (using human cloned receptors in HEK 293 and [3H]5-CTas a radioligand ); assay type: cell-based, HEK293
5-hydroxytryptamine receptor 5A, sequence (P47898 whole entry): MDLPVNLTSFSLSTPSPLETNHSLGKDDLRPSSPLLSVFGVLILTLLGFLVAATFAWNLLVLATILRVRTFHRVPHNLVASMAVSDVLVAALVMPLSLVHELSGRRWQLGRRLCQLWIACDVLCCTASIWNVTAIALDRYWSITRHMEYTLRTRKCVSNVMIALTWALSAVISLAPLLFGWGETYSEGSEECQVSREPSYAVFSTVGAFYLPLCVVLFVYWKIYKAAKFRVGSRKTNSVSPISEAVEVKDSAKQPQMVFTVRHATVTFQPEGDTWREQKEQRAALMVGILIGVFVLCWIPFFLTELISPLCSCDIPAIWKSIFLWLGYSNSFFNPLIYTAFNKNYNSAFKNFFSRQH

Cavia porcellus [15] = species: Cavia porcellus; test: Effective dose to antagonise 5-CT induced hypothermia in guinea pig at 2 hours; assay type: functional
[16] = target: 5-hydroxytryptamine receptor 2B (Homo sapiens, UniProt P41595); test: Compound was tested for its binding affinity for human cloned 5-hydroxytryptamine 2B receptor in HEK 293 using [3H]ketanserin as a radioligand; assay type: cell-based, HEK293
5-hydroxytryptamine receptor 2B, sequence (P41595 whole entry): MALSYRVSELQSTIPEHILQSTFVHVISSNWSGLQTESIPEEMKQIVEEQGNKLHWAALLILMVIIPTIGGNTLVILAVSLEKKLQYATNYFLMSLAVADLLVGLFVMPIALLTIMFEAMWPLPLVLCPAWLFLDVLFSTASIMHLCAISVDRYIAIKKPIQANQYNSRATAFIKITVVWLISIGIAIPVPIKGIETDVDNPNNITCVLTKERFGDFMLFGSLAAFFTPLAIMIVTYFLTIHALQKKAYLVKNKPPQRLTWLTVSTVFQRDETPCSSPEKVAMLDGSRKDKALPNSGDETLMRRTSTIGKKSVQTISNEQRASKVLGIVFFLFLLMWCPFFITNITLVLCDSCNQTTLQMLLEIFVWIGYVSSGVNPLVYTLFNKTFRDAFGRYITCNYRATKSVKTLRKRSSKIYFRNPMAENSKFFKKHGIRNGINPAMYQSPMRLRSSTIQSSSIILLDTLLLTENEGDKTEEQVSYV

[17] = target: T1, 5-hydroxytryptamine receptor 7; test: Compound was tested for its binding affinity in 5-hydroxytryptamine 7 receptor (using human cloned receptors in HEK 293 and [3H]5-CT as a radioligand ); assay type: cell-based, HEK293
[18] = target: 5-hydroxytryptamine receptor 1B (Homo sapiens, UniProt P28222); test: Compound was tested for its binding affinity for human cloned 5-hydroxytryptamine 1B receptor in CHO using [3H]5-HT as a radioligand
5-hydroxytryptamine receptor 1B, sequence (P28222 whole entry): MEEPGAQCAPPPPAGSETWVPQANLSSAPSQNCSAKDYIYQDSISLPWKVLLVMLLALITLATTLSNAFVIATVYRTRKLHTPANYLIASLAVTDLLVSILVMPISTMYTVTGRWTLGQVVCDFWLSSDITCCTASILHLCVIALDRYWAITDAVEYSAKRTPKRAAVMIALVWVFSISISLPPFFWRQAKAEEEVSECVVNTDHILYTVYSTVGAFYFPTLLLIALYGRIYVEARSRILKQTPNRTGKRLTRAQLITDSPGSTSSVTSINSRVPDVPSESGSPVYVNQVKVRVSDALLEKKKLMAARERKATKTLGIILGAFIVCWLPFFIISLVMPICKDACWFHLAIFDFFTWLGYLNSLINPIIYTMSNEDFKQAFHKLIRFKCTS

[19] = target: 5-hydroxytryptamine receptor 1E (Homo sapiens, UniProt P28566); test: Compound was tested for its binding affinity for human cloned 5-hydroxytryptamine 1E receptor in CHO using [3H]5-HT as a radioligand
5-hydroxytryptamine receptor 1E, sequence (P28566 whole entry): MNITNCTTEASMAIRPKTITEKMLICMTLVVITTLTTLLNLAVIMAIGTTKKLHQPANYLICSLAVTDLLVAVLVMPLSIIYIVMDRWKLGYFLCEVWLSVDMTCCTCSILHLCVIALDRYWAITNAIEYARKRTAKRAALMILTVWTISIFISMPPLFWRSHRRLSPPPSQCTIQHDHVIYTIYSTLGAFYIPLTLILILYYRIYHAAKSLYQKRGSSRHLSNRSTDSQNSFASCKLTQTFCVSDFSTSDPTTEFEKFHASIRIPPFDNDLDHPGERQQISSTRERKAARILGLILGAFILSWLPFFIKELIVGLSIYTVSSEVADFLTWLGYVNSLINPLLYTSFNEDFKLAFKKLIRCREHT

[20] = target: T5, 5-hydroxytryptamine receptor 2C (Homo sapiens, UniProt P28335); test: Compound was tested for its binding affinity for human cloned 5-hydroxytryptamine 2C receptor in HEK 293 using [3H]mesulergine as a radioligand; assay type: cell-based, HEK293
T5 sequence (P28335 whole entry): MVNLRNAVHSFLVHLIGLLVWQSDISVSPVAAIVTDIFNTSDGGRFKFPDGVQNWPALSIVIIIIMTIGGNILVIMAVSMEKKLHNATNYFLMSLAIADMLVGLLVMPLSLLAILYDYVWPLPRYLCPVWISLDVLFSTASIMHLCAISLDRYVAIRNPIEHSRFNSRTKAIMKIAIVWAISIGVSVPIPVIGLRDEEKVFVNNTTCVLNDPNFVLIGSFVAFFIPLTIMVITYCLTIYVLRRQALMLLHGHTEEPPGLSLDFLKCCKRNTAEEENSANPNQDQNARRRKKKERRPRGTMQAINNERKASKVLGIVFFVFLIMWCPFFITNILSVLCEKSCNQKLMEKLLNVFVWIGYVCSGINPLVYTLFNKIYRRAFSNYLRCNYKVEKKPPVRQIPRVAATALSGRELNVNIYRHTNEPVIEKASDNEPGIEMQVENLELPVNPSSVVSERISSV

T1 sequence (P34969 whole entry): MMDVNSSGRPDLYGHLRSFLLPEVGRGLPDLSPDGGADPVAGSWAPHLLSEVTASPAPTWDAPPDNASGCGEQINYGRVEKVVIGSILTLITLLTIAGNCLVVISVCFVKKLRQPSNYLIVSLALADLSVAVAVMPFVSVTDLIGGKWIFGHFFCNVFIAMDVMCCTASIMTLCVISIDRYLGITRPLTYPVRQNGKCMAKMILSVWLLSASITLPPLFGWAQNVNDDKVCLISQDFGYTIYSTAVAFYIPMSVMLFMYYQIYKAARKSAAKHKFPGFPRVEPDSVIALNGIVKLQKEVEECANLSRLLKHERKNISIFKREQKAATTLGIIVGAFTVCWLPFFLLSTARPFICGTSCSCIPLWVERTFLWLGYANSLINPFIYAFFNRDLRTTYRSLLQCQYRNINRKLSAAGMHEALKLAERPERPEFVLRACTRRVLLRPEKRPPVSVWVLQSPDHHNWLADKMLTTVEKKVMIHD

Structure (SMILES) | Ki [1] [nM] | Ki [2] [nM] | further results
O=S(=O)(c1ccc2cc[nH]c2c1)N1CCC[C@@H]1CCN1CCC(Oc2ccc(F)cc2)CC1 | 0.501 | 30.2 | 
O=C(c1ccc(F)cc1)C1CCN(CC[C@H]2CCCN2S(=O)(=O)c2ccc3cc[nH]c3c2)CC1 | 0.832 | 19.1 | 
CC1CCN(CC[C@H]2CCCN2S(=O)(=O)c2cccc(O)c2)CC1.Cl |  |  | ED50 (Cavia porcellus [3]): 3 mg/kg; clearance [4]: 140 mL/min/kg; Kp [5]: 0.8; half-life [6]: < 0.5 h
O=S(=O)(c1ccc2cc[nH]c2c1)N1CCC[C@@H]1CCN1CCC(Oc2ccc(Cl)cc2)CC1 |  |  | Ki [7]: 1910 nM; bioavailability [8]: 16%; Ki [9]: 25.1 nM; Ki [10]: 851 nM; Ki [11]: > 2000 nM; Ki [12]: 63.1 nM; Ki [13]: 562 nM; Ki [14]: 182 nM; ED50 (Cavia porcellus [15]): 2 mg/kg; clearance [4]: 57 mL/min/kg; Ki [16]: 91.2 nM; Ki [17]: 2 nM; Ki [18]: 631 nM; Kp [5]: 0.9; half-life [6]: 2 h; Ki [19]: > 5010 nM; Ki [20]: 269 nM
CC1CCN(CC[C@H]2CCCN2S(=O)(=O)c2ccc3[nH]nnc3c2)CC1 | 25.7 |  | 
O=S(=O)(c1ccc2cc[nH]c2c1)N1CCC[C@@H]1CCN1CCC(n2c(O)nc3ccccc32)CC1 | 0.708 | 43.7 | 
CC1CCN(CC[C@H]2CCCN2S(=O)(=O)c2ccc3cc[nH]c3c2)CC1 | 2.4 | > 10000 | 
CC1CCN(CC[C@H]2CCCN2S(=O)(=O)c2ccc3c(c2)NCC3)CC1 | 22.9 |  | 
CC1CCN(CC[C@H]2CCCN2S(=O)(=O)c2ccc3oc(O)nc3c2)CC1 | 166 |  | 
CC1CCN(CC[C@H]2CCCN2S(=O)(=O)c2ccc3[nH]cnc3c2)CC1 | 6.46 |  | 
O=S(=O)(c1ccc2cc[nH]c2c1)N1CCC[C@@H]1CCN1CCC(c2c[nH]c3ccccc23)CC1 | 0.676 | 1.29 | 
CC1CCN(CC[C@H]2CCCN2S(=O)(=O)c2ccc3c[nH]nc3c2)CC1 | 6.46 |  | 
O=S(=O)(c1ccc2cc[nH]c2c1)N1CCC[C@@H]1CCN1CCC(c2cc3ccccc3[nH]2)CC1 | 6.31 | 89.1 | 
O=C(c1ccc(Cl)cc1)C1CCN(CC[C@H]2CCCN2S(=O)(=O)c2ccc3cc[nH]c3c2)CC1 | 0.794 | 93.3 | 
O=c1oc2ccccc2n1C1CCN(CC[C@H]2CCCN2S(=O)(=O)c2ccc3cc[nH]c3c2)CC1 | 1.82 | 309 | 
CC1CCN(CC[C@H]2CCCN2S(=O)(=O)c2ccc3[nH]c(O)nc3c2)CC1 | 57.5 |  | 
